These results are taken from US20070031493A1, “Pharmaceutical compositions” (priority 1996, published 2007).

The solubility is how much of the substance goes into solution per volume. A low value points to a poorly soluble substance.

A value given as a limit tells only on which side of the number the result lay.

What all share (assay type): physicochemical
A short description of series [1]: Drug release from non-eroding high molecular weight xanthane matrix tablet, USP II apparatus. The conditions noted are these: non-eroding matrix of xanthane (195 mg), 5 mg drug; pH 6.8, +37° C., paddle 75 rpm; FIG. 2. How it is done:
(§1) In the following Examples 1 to 3, drug release from various types of tablets was determined in pH 6.8, +37° C., by use of an USP II apparatus at a paddle stirring rate of 75 rpm. All tablet formulations were manufactured by conventional techniques and, for each example, in an identical manner except for the drug constituent.

Series [2] in a line: Drug release and tablet erosion, eroding polyethyleneoxide (PEO) matrix tablet, USP II apparatus. The note with it: eroding matrix of PEO 8,000,000, 10 mg drug; pH 6.8, +37° C., paddle 75 rpm; FIG. 1. How it is done:
In the following Examples 1 to 3, drug release from various types of tablets was determined in pH 6.8, +37° C., by use of an USP II apparatus at a paddle stirring rate of 75 rpm. All tablet formulations were manufactured by conventional techniques and, for each example, in an identical manner except for the drug constituent. […] Tablet erosion was determined by weighing after removal of the tablets from the dissolution apparatus and drying to constant weight.

Series [3] in a line: Drug release from eroding paraffin matrix tablet and immediate release hard gelatin capsule, USP II apparatus. The conditions noted are these: 20 mg drug, pH 6.8, +37° C., paddle 75 rpm, FIG. 3. As for the experimental part: as §1
The nature of series [4]: Transport over a diffusion controlling polymeric membrane, two-compartment cell. The conditions noted are these: pH 6.8, +37° C., steady state, FIG. 4. As for the experimental part: The release rate was studied at different initial concentrations of the active drug. The solutions (pH 6.8) in the chambers were well stirred and thermostated at +37° C. From the cumulative amount released versus time, the release rates (amount released/time) were determined as the slopes of the linear parts of the curves obtained at steady state. No accumulation in the membrane was found of any of the drugs. The results are presented in FIG. 4 as the release rates versus the concentrations used in the experiments.

The nature of series [5]: Water solubility.

On to `CC(C)n1c(/C=C/[C@@H](O)C[C@@H](O)CC(=O)O)c(-c2ccc(F)cc2)c2ccccc21` (relative stereo) [fluvastatin, R*,S*-(E)-(±)-7-[3-(4-fluorophenyl)-1-(1-methyl-ethyl)-1H-indol-2-yl]-3,5-dihydroxy-6-heptenoic acid], for which the “drug release from sustained release tablet (comparison)” value in series [1] is “slower than the release of both diclofenac and methylparaben”; in series [2], “slower than the release of methylparaben”; in series [3], “slower than the release of diclofenac”. The “drug release compared with tablet erosion” value in series [2] is “almost identical”. Moreover, in series [4] (different initial concentrations), the “release rate over membrane versus concentration in donor chamber” value is “independent of the concentration of fluvastatin in the donor compartment”. In addition, in series [4], the “release rate over membrane (comparison)” value is recorded as “much slower compared to diclofenac”.
As to `CC(C)n1c(/C=C/C(O)CC(O)CC(=O)O)c(-c2ccc(F)cc2)c2ccccc21` (stereo not drawn) [fluvastatin sodium], the water solubility in series [5] was greater than 50 mg/mL. For the same compound, in series [5] (water), the solubility is greater than 50 mg/mL.
In the case of `COC(=O)c1ccc(O)cc1` [methylparaben, methyl p-hydroxybenzoate], in series [2], the “drug release compared with tablet erosion” value is given as “faster than the tablet erosion”.
